One compound from article PMC9532703, “A novel small molecule RK-019 inhibits FGFR2-amplification gastric cancer cell proliferation and induces apoptosis in vitro and in vivo” (Frontiers in Pharmacology, 2022) can be followed below.

One data set deals with ROCK-II(r). The experiment in a line: Kinase selectivity panel. To be noted: read-out: Inhibition(%) @ 1 µM RK-019. In kind it is biochemical, rat. As for the experimental part: Median-inhibitory concentration (IC50) and inhibition ratio of kinases by RK-019 was assessed by Eurofins Discovery Services (Dundee, United Kingdom) using the ATP-site competition binding assay in vitro. Firstly, gradient concentration of RK-019 against FGFRs, including FGFR1, FGFR2, FGFR3, and FGFR4, were tested. IC50 value was calculate by the GraphPad Prism software (v8.4.3, GraphPad Software, California, United States). Then, to measure the selectivity prolife of RK-019, a panel of 422 recombinant human kinases was screened at a concentration of 1 µM RK-019. Kinase MAP was drawn by webtools from Cell Signaling Technology, Inc. (www.cellsignal.com).

Data set [1] is described as follows: Preliminary toxicity in the xenograft mice model. It counts as in vivo, NOD/SCID mice. As for the experimental part: NOD/SCID mice (6-week-old, weight 18–20 g, Beijing HJF bioscience) were used in this experiment and maintained in a specific-pathogen-free (SPF) condition facility. SNU-16 Cells were resuspended in PBS mixed with Matrigel (1:1) and adjust the density to 1×10^7 per mice (100 μL). The cell suspensions were inoculated subcutaneously on the right flank of the mice. When the mean tumor volume reached approximately 200 mm^3, the mice were divided into four groups (five mice each group): i. Vehicle group, ii. RK-019 15 mg/kg group, iii. RK-019 30 mg/kg group, and iv. RK-019 45 mg/kg group. RK-019 was dissolved in same formula as the in vivo PK study. RK-019 was administrated once per day by oral gavage for 21 days. Tumor volumes were measured three times per week. The tumor volume was measured by a caliper and calculated according to the following formula: Tumor volume=Major axis×Miner axis^2/2.
At the end of administration, the mice were executed euthanasia, then tumors, blood, and organs were extracted. The complete blood count (CBC), serum phosphorus analysis, and blood biochemical analysis were completed by West China Frontier Pharma Tech (Chengdu, China). The pathological section and IHC stanning was completed by Servicebio (Wuhan, China). The tumor growth inhibition (TGI) values were calculated with the following formula: TGI=(1−Tn−T0/Cn−C0)×100%.

For a further data set, the target named is T1, Met(M1268T)(h) (Homo sapiens, UniProt P08581, M1250T).
T1 construct: purchased Eurofins Discovery Services (KinaseProfiler)
In words: Kinase selectivity panel. In kind it is biochemical. To be noted: read-out: Inhibition(%) @ 1 µM RK-019. In a few lines:
(§1)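 Recombinant human kinase incubated with 1 µM compound; ATP-site competition binding quantified in vitro as inhibition ratio.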

For a further data set, the target named is T2, DDR2(h) (Homo sapiens, UniProt Q16832).
T2 construct: purchased Eurofins Discovery Services (KinaseProfiler)
In words: Kinase selectivity panel. In kind it is biochemical. To be noted: read-out: Inhibition(%) @ 1 µM RK-019. The essentials:
as §1

In the next data set the target is T3, EphA2(h) (Homo sapiens, UniProt P29317).
T3 construct: purchased Eurofins Discovery Services (KinaseProfiler)
The experiment in a line: Kinase selectivity panel. In kind it is biochemical. To be noted: read-out: Inhibition(%) @ 1 µM RK-019. The essentials: as §1

A further data set concerns the target T4, CDK16/cyclinY(h) (Homo sapiens, UniProt Q00536).
T4 construct: purchased Eurofins Discovery Services (KinaseProfiler)
In words: Kinase selectivity panel. In kind it is biochemical. To be noted: read-out: Inhibition(%) @ 1 µM RK-019. In a few lines:
as §1

The target of another data set is T5, ErbB2(h) (Homo sapiens, UniProt P04626).
T5 construct: purchased Eurofins Discovery Services (KinaseProfiler)
In words: Kinase selectivity panel. It counts as biochemical. To be noted: read-out: Inhibition(%) @ 1 µM RK-019. The essentials:
as §1

The next data set has as its target T6, MST4(h) (Homo sapiens, UniProt Q9P289).
T6 construct: purchased Eurofins Discovery Services (KinaseProfiler)
In words: Kinase selectivity panel. It counts as biochemical. The note with it: read-out: Inhibition(%) @ 1 µM RK-019. The essentials: as §1

A further data set has as its target T7, PKBα(h) (Homo sapiens, UniProt P31749).
T7 construct: purchased Eurofins Discovery Services (KinaseProfiler)
In words: Kinase selectivity panel. The note with it: read-out: Inhibition(%) @ 1 µM RK-019. In kind it is biochemical. In a few lines:
as §1

The next data set has as its target T8, PhKγ1(h) (Homo sapiens, UniProt Q16816).
T8 construct: purchased Eurofins Discovery Services (KinaseProfiler)
The experiment in a line: Kinase selectivity panel. In kind it is biochemical. To be noted: read-out: Inhibition(%) @ 1 µM RK-019. In a few lines: as §1

A further data set has as its target T9, ALK2(h) (Homo sapiens, UniProt Q04771).
T9 construct: purchased Eurofins Discovery Services (KinaseProfiler)
The experiment in a line: Kinase selectivity panel. It counts as biochemical. To be noted: read-out: Inhibition(%) @ 1 µM RK-019. In a few lines: as §1

The next data set has as its target T10, LTK(h) (Homo sapiens, UniProt P29376).
T10 construct: purchased Eurofins Discovery Services (KinaseProfiler)
The experiment in a line: Kinase selectivity panel. In kind it is biochemical. The note with it: read-out: Inhibition(%) @ 1 µM RK-019. The essentials:
as §1

The next data set has as its target T11, Yes(h) (Homo sapiens, UniProt P07947).
T11 construct: purchased Eurofins Discovery Services (KinaseProfiler)
In words: Kinase selectivity panel. In kind it is biochemical. To be noted: read-out: Inhibition(%) @ 1 µM RK-019. The essentials: as §1

A further data set deals with T12, SRPK1(h) (Homo sapiens, UniProt Q96SB4).
T12 construct: purchased Eurofins Discovery Services (KinaseProfiler)
In words: Kinase selectivity panel. To be noted: read-out: Inhibition(%) @ 1 µM RK-019. In kind it is biochemical. The essentials:
as §1

The target of a further data set is T13, IRAK4(h) (Homo sapiens, UniProt Q9NWZ3).
T13 construct: purchased Eurofins Discovery Services (KinaseProfiler)
In words: Kinase selectivity panel. In kind it is biochemical. To be noted: read-out: Inhibition(%) @ 1 µM RK-019. The essentials:
as §1

The target of a further data set is T14, MAP4K5(h) (Homo sapiens, UniProt Q9Y4K4).
T14 construct: purchased Eurofins Discovery Services (KinaseProfiler)
In words: Kinase selectivity panel. It counts as biochemical. To be noted: read-out: Inhibition(%) @ 1 µM RK-019. The essentials:
as §1

T8 sequence (Q16816 whole entry): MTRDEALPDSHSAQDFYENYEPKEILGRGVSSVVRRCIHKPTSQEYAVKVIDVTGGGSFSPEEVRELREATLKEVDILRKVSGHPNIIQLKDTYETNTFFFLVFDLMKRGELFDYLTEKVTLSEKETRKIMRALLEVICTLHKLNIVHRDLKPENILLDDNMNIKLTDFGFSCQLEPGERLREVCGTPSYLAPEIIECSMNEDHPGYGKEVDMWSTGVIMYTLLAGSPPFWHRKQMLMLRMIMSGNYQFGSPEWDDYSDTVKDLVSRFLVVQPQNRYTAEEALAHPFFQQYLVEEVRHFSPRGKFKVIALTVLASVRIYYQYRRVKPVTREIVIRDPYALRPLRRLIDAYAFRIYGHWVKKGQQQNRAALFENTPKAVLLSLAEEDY
T10 sequence (P29376 17-864): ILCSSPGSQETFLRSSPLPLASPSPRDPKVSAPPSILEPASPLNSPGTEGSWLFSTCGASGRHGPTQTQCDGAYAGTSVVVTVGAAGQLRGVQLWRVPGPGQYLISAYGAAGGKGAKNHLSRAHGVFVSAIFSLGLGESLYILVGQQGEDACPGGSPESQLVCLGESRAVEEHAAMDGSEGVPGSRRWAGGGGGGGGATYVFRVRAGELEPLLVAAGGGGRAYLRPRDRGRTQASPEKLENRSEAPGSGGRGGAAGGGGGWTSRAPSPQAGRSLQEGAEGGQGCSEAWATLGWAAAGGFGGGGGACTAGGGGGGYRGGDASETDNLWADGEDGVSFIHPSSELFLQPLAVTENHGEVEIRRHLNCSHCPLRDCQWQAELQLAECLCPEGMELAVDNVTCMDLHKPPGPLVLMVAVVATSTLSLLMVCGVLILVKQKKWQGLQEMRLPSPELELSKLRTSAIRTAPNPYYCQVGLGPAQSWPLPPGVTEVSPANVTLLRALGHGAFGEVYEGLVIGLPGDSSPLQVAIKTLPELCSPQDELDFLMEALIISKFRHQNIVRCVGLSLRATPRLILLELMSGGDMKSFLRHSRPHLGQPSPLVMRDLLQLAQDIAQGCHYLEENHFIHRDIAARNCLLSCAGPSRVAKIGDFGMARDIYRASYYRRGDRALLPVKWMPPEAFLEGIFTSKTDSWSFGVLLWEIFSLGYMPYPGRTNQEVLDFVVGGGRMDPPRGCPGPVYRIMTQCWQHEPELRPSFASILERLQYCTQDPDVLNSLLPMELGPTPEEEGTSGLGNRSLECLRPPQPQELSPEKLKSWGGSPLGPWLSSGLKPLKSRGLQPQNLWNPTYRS
T2 sequence (Q16832 22-855): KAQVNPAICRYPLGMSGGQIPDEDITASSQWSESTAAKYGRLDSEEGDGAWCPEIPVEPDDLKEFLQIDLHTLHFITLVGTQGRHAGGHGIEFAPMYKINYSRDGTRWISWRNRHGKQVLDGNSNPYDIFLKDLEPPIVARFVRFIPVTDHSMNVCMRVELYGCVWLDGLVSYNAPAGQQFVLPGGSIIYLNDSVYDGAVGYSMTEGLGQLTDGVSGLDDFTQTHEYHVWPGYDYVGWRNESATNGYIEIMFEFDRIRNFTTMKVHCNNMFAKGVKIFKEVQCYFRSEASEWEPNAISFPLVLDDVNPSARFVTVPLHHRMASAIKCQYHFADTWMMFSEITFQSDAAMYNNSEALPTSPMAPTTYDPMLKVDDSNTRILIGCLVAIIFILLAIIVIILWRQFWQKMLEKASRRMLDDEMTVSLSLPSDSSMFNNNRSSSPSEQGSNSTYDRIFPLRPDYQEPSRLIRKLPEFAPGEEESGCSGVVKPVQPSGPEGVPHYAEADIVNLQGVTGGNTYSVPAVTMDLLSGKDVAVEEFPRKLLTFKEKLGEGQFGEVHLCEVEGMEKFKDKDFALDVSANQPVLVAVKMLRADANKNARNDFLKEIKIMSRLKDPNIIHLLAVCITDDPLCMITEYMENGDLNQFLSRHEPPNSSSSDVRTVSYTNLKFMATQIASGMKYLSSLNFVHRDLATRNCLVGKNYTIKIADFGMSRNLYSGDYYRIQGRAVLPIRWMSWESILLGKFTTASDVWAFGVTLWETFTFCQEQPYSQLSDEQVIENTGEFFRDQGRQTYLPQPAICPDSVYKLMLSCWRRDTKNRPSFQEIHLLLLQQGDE
T11 sequence (P07947 whole entry): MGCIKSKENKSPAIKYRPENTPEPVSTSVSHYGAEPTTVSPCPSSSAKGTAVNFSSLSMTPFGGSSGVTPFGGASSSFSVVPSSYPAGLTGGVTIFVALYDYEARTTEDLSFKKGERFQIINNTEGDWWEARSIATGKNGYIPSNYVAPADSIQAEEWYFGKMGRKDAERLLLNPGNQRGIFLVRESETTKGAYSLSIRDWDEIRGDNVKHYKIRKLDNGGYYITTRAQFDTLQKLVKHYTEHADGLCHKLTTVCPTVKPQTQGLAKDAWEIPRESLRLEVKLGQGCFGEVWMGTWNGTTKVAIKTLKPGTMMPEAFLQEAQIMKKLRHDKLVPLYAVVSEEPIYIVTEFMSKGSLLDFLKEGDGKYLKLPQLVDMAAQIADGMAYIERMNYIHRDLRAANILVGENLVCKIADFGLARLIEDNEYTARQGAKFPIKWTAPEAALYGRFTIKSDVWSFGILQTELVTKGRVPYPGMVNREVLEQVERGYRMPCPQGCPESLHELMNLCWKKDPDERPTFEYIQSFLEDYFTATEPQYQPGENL
T14 sequence (Q9Y4K4 whole entry): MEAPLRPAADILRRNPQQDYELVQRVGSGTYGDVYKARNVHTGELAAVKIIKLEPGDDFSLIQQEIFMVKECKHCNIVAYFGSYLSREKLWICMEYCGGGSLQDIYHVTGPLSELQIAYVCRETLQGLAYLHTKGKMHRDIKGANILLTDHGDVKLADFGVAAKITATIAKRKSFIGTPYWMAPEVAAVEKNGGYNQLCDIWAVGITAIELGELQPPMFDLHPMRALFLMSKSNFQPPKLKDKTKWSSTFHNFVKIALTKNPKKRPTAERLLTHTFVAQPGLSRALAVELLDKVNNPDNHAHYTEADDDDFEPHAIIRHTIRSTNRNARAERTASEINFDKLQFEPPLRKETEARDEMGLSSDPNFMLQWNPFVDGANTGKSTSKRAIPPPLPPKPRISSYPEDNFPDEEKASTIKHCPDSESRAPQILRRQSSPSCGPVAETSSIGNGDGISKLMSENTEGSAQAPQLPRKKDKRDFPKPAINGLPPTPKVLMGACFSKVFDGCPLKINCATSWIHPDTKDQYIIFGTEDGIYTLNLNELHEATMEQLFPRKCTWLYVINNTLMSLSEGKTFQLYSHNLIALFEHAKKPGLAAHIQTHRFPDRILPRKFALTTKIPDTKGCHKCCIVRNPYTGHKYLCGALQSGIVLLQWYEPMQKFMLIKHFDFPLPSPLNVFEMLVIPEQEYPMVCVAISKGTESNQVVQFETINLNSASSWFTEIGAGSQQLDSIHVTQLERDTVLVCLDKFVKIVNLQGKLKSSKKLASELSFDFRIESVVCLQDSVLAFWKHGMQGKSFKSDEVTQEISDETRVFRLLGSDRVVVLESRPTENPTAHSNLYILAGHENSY
T13 sequence (Q9NWZ3 whole entry): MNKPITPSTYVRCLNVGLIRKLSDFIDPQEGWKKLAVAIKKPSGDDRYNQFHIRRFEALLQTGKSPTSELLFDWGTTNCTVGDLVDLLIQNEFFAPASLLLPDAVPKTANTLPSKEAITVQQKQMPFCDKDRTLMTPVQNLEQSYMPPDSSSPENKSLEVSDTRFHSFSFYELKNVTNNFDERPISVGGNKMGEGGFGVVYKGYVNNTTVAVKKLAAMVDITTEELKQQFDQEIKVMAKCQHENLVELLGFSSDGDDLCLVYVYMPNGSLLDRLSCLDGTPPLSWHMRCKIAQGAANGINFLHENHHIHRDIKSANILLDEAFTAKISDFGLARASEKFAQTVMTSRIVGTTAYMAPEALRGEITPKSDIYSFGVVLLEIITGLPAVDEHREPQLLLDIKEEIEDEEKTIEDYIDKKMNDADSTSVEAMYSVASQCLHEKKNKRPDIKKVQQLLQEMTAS
T9 sequence (Q04771 21-509): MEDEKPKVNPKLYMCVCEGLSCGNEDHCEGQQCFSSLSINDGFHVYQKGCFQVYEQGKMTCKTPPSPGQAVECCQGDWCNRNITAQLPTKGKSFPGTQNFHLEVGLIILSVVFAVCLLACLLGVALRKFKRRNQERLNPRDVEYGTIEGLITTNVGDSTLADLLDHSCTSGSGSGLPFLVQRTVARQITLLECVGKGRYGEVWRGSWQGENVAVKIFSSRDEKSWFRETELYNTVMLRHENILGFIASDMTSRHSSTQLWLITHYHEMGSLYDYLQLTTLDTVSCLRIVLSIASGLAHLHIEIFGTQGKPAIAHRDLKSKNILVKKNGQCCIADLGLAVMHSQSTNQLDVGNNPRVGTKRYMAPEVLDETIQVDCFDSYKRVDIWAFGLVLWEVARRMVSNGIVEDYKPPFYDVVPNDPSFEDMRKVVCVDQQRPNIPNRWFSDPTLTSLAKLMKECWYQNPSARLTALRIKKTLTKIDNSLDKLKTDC
T6 sequence (Q9P289 whole entry): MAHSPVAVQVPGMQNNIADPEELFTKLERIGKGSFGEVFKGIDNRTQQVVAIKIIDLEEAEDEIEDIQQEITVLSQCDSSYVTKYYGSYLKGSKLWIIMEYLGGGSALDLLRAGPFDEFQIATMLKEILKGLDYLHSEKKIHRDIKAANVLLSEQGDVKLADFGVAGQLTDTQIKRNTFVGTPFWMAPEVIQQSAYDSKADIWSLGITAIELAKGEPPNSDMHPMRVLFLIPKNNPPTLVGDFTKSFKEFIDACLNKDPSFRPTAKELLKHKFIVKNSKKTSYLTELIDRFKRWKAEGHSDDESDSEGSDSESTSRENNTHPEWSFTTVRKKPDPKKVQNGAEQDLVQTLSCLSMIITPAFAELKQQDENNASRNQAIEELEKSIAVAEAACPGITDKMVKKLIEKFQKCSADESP

For `COc1cc(OC)cc(N(CCN[C@H](C)CO)c2ccc3ncc(-c4cnn(C)c4)c(=O)n3c2)c1` [RK-019, (R)-7-((3,5-dimethoxyphenyl) (2-((1-hydroxypropan-2-yl)amino)ethyl)amino)-3-(1-methyl-1H-pyrazol-4-yl)-4H-pyrido [1,2-a]pyrimidin-4-one], the activity with ROCK-II(r) was 91%. Moreover, the body weight change result in data set [1] (during 21 days treatment, 15-45 mg/kg oral) was “no significant body weight change”. In addition, in data set [1] (end of 21 days treatment), the hematopoietic toxicity result was “absent”. For the same compound, in data set [1] (end of 21 days treatment), the “pathological changes in harvested organs (H&E)” value was “no pathological changes”. Besides, the activity at 1 µM at Met(M1268T)(h) worked out at 71%; at DDR2(h), 109%; at EphA2(h) it was 61%; on CDK16/cyclinY(h), 108%; at ErbB2(h), 94%; at MST4(h), 90%. Besides, the activity at 1 µM is 102% on PKBα(h); 93% at PhKγ1(h); 90% at ALK2(h); 101% on LTK(h); 29% at Yes(h); 112% at SRPK1(h). The activity at 1 µM at IRAK4(h) was determined as 100%; on MAP4K5(h), 103%.
